# Measurements taken from EP0101294B1, “Composition for protecting and healing gastro-duodenal mucosa and the liver of mammals” (THE REGENTS OF THE UNIVERSITY OF CALIFORNIA, priority 1982, dated 1984).
# Marks after values point to notes of the source that are not given here.
# Tests used:
# Assay type in all cases: in vivo, Spraque-Dawley rats
# gastric mucosa [1] = assay: Study 4: linoleic acid mucosal protection against ethanol; conditions: 3 hours after ethanol
# Procedure: Twenty-four hours prior to the experimentation the animals were fasted in wire-bottomed cages to prevent coprophagy.
# The rats were given intragastric treatment by peroral tube 1 ml of PL solution; 1 ml of the PL solution containing 120 mM linoleic acid (LLC) or 240 mM LLC; or 1 ml of 240 mM oleic acid solubilized in 5 mM PL. […] Macroscopic and histologic mucosal changes were evaluated as in the studies with arachidonic acid.
# gastric mucosa [2] = assay: Study 6: arachidonic and linoleic acid mucosal protection against acetylsalicylic acid; conditions: for Macroscopic mucosal changes (lesion index, number of lesions x severity): 1 ml 120 mM AA or 240 mM LLC in PL 1 hour before 200 mg/kg aspirin intragastrically, 4 hours after acetyl salicylic acid; for Histologic evaluation: deep necrotic lesions / Mucosa by scanning electromicroscopy: 4 hours after aspirin, 120 mM AA or 240 mM LLC pretreatment
# Procedure: (§1) The animals used in the examples were Spraque-Dawley rats (225 to 250 grams bodyweight). Twenty-four hours prior to the experimentation the animals were fasted in wire-bottomed cages to prevent coprophagy.
# Rats were given intragastric treatment by peroral tube with 1 ml of PL solution, 1 ml of PL solution containing 120 mM arachidonic acid (AA), or 1 ml of PL solution containing 240 mM linoleic acid (LLC). One hour after such treatment a suspension of 200 mg/kg bodyweight of aspirin in 0.1 n HCI containing 1% methyl cellulose was administered intragastrically in 1 ml volume. The animals were sacrified 4 hours after acetyl salicylic acid administration.
# • 1) Macroscopic quantitation of mucosal changes based on scoring system estimating presence or absence of hemorrhagic lesions, their number and severity graded on arbitrary scale 1 to 4. Lesion index, expressed as an average score (number of lesionsxseverity) was estimated per each group of animals. • 2) Mucosal histology • 3) Scanning electron microscopy
# liver = assay: Study 7: liver protection against ethanol, electron microscopy of hepatocytes; conditions: 1 ml 120 mM AA (37 mg) in PL by gavage 1 hour before 2.5 ml 100% ethanol; sacrificed 24 hours later
# Procedure: 40 rats were given, by gavage, either 1 ml of 5 mM PL solution (as a control) or a 1 ml of 120 mM arachidonic acid in the 5 mM PL solution. One hour later the rats were given 2.5 ml of 100% ethanol and the animals sacrificed 24 hours later.
# The liver was then removed and specimens fixed for 2 hours in 3.5% purified glutaraldehyde (buffered in 0.1 M phosphate of 7.4). The liver specimens were washed with buffer and postfixed in 1% osmium tetroxide at 0°C for 1 hour. After dehydration with graded ethanol the tissue was embedded in epoxy resin. Silver gray thin sections of the specimen were double stained with 2% uranyl acetate followed by lead citrate and examined with an RCA electron microscope.
# gastric mucosa [3] = assay: Study 3: intragastric versus intrajejunal arachidonic acid, pylorus ligated, ethanol-induced gastric mucosal injury; conditions: 1 hour before 2 ml ethanol, evaluated 2 hours after ethanol
# Procedure: as §1
# The next series of experiments was designed to compare the effect of intragastric to intrajejunal pretreatment with arachidonic acid on ethanol-induced gastric mucosal injury. The animals were anesthetized with nembutal (50 mg nembutal per kg body weight intraperitoneally), their abdomens were opened and either 1 ml of 120 mM arachidonic acid or 5 mM PL was installed intragastrically or 1 ml of 120 mM arachidonic acid intrajejunally with a polyethylene catheter introduced through a small duodenal incision. The pylorus was ligated immediately after solution instillation. One hour later the gastric contents were removed and 2 ml of ethanol were instilled through the catheter. The stomach was examined 2 hours later.
# A camera with 100 mm macro lens was used to photograph the mucosal surface of the stomach. The same type of film and identical conditions of specimen distance from the lens, light intensity and film development were used throughout the study. Color slides were evaluated by a computerized image analysis. […] The areas of hemorrhagic changes were expressed as the percentage of the entire gastric glandular mucosal area.
# gastric mucosa [4] = assay: Study 2: arachidonic acid mucosal protection 15 hours after ethanol, computerized analysis of hemorrhagic area; conditions: 1 ml 120 mM AA (37 mg) in PL intragastric 1 hour before 2 ml ethanol; evaluated 15 hours after ethanol; percent of total glandular mucosal area
# Procedure: as §1
# One ml of 120 mM arachidonic acid solution (37 mg arachidonic acid) or 5 mM PI solution was instilled into the stomach 1 hour prior to the intragastric administration of 2 ml ethanol. The animals were killed 15 hours after ethanol administration and their stomachs were examined.
# A camera with 100 mm macro lens was used to photograph the mucosal surface of the stomach. The same type of film and identical conditions of specimen distance from the lens, light intensity and film development were used throughout the study. Color slides were evaluated by a computerized image analysis. Each slide was converted to a black-and-white video image consisting of 65,000 points. White represented normal gastric mucosa, while gray or black represented hemorrhagic changes. […] Absolute white was given a 255 value while absolute black was given a value of 0. Boundaries delineating the glandular mucosa were drawn on the digital video image with a sonic pen. All spatial and contrast information was stored on a magnetic disk. […] The areas of hemorrhagic changes were expressed as the percentage of the entire gastric glandular mucosal area.
# gastric mucosa [5] = assay: Scanning electron microscopy of gastric mucosa after ethanol; conditions: 3 hours after ethanol, arachidonic acid pretreated rats
# From the text: Gastric mucosal specmens, fixed in 3.5% buffered glutaraldehyde were processed routinely for scanning electronmicroscopy and evaluated in a JOEL-35 scanning electronmicroscope operated at 20 kV.
# gastric mucosa [6] = assay: Study 5: arachidonic acid mucosal protection against taurocholic acid; conditions: 1 ml 120 mM AA in PL; 3 ml 80 mM TCA in 0.1 n HCl twice; 3 hours after second TCA dose
# Procedure: as §1
# Rats were given intragastric treatment by peroral tube with 1 ml of PL solution or 1 ml of PL solution containing 120 mM arachidonic acid (AA). The rats then received, intragastrically, 3 mls of a 80 mM solution of taurocholic acid (TCA) dissolved in 0.1 n in HCI, adminstered twice: one or two hours after PL or AA pretreatment. Animals were sacrificed 3 hours after second TCA administration.
# Gastric mucosa was assessed macroscopically and histologically for damage in a similar manner as in studies with ethanol. […] These lesions corresponding histologically to necrotic lesions were similar to those seen after ethanol.
# gastric mucosa [7] = assay: Study 1: arachidonic acid mucosal protection 3 hours after ethanol, computerized analysis of hemorrhagic area; conditions: percent of total glandular mucosal area
# Procedure: as §1
# Animals were given by gavage 1 ml of either saline, or 5 mM PL solution in saline, or 1 ml of the PL-saline solution containing arachidonic acid in 30, 60 and 120 mM concentrations respectively. One-half hour or 1 hour later, 2 ml of absolute ethanol were instilled into the stomach by gavage. Three hours later the animals were sacrificed and their stomachs removed.
# A camera with 100 mm macro lens was used to photograph the mucosal surface of the stomach. The same type of film and identical conditions of specimen distance from the lens, light intensity and film development were used throughout the study. Color slides were evaluated by a computerized image analysis. Each slide was converted to a black-and-white video image consisting of 65,000 points. White represented normal gastric mucosa, while gray or black represented hemorrhagic changes. […] Absolute white was given a 255 value while absolute black was given a value of 0. Boundaries delineating the glandular mucosa were drawn on the digital video image with a sonic pen. All spatial and contrast information was stored on a magnetic disk. Each glandular mucosal area was classified interactively by slicing the spectrum of mucosal values into 2 or more subgroups and by displaying the resultant simplified digital image for verification with the more complex analog photographic input. Once a classification scheme was established, a spatial rendition of the picture's point was printed and plotted to scale on paper. A summary of the computer results was also printed and included boundary values for each gray-level slice and the absolute and relative areas of each class. The areas of hemorrhagic changes were expressed as the percentage of the entire gastric glandular mucosal area.
# PGE2 = PGE2 measurement in gastric contents (radioimmunoassay, bioassay)
# Procedure: PGE2 was measured by direct radioimmunoassay using antisera generated in rabbits by immunization of PGE2 linked to bovine thyroglobulin. For additional confirmation of PGE2 measurements, samples were also subjected to bioassay. After addition of approximately 5000 CPM of ^3H-labeled PGE2 for recovery calculations, samples were adjusted to pH 4.3 with 0.5 M phosphate buffer and extracted twice with ethyl acetate. The organic layer was subjected to thin layer chromatography (benzene:dioxane:acetic acid, 90:60:3), and the PGE2 fraction was extracted with methanol, dried and reconstituted in 0.9% NaCl for assay. A bioassay cascade (according to Vane) was used to assay simultaneously the samples in 2 aliquot sizes and on 3 rat stomach strips. The concentration of PGE2 in the gastric contents were measured in 2 groups of rats 30 or 60 minutes following intragastric installation of 1 ml of 120 mM arachidonic acid or 1 ml PL in order to determine the extent of arachidonic acid conversion to PGE2 by the gastric mucosa. The spontaneous release of PGE2 into the gastric lumen was assessed in animals receiving PL pretreatment only. In addition, PGE2 concentration in the original 120 mM arachidonic acid solution was measured before intragastric instillation.
# gastric mucosa [8] = assay: Histological studies of gastric mucosa (light microscopy)
# Procedure: Mucosal specimens 5 mm in width were cut from the forestomach to the pylorus. The specimens were obtained (a) 60 minutes after intragastric administration of 1 ml of solution containing either saline, PL or 120 mM arachidonic acid or (b) 3 hours after intragastric instillation of 2 ml of ethanol in animals which had received 1 ml of solution containing either saline or PL or 120 mM arachidonic acid 1 hour before ethanol. Specimens were fixed in buffered 10% formalin and stained. Coded specimens were examined "blindly" by light microscopy. In the histological evaluation special attention was paid to the continuity of the surface epithelium layer, presence or absence of hemorrhagic erosions, edema of the submucosa and infiltration with polymorphonuclear neutrophils.
# [9] = 1 ml 240 mM in 5 mM PL intragastric pretreatment
# [10] = histology 3 hours after 2 ml absolute ethanol, pretreated with 1 ml 120 mM AA+PL 1 hour before
smiles,measurement,setting,value
"CCCCCCCC/C=C\CCCCCCCC(=O)O [oleic acid, reference compound]","macroscopic hemorrhagic lesions, % of glandular mucosal area",gastric mucosa [1]; [9],29.1±3%
same,Mucosal histology: deep necrotic lesions,gastric mucosa [1],deep hemorrhagic necrotic lesions penetrating into muscularis mucosa were present
"CCCCC/C=C\C/C=C\CCCCCCCC(=O)O [LLC, linoleic acid]","macroscopic hemorrhagic lesions, % of glandular mucosal area",gastric mucosa [1]; 1 ml 120 mM in 5 mM PL intragastric pretreatment,6.5±1%
same,"macroscopic hemorrhagic lesions, % of glandular mucosal area",gastric mucosa [1]; [9],1.3±0.5%
same,Mucosal histology: deep necrotic lesions,gastric mucosa [1],no deep necrotic lesions were present
same,edema in the forestomach,"gastric mucosa [1]; macroscopic, group pretreated with linoleic acid",marked edema in the forestomach
same,"Macroscopic mucosal changes (lesion index, number of lesions x severity)",gastric mucosa [2],8±1
same,Histologic evaluation: deep necrotic lesions,gastric mucosa [2],deep necrotic lesions did not occur
same,Mucosa by scanning electromicroscopy,gastric mucosa [2],nearly normal mucosa
"CCCCC/C=C\C/C=C\C/C=C\C/C=C\CCCC(=O)O [AA, arachidonic acid]",ultrastructural changes in the hepatocytes,liver,most of the alcohol induced changes were virtually prevented
same,Hemorrhagic area*(%),gastric mucosa [3]; 1 ml 120 mM AA intragastrically,5.3%
same,Hemorrhagic area*(%),gastric mucosa [3]; 1 ml 120 mM AA intrajejunally,28.1%
same,Hemorrhagic area*(%),gastric mucosa [4],0.6%
same,Mucosal surface by scanning electronmicroscopy,gastric mucosa [5],nondisrupted and normal appearance
same,"mucosal lesions, macroscopically and histologically",gastric mucosa [6],not detectable
same,"Macroscopic mucosal changes (lesion index, number of lesions x severity)",gastric mucosa [2],2±0.3
same,Histologic evaluation: deep necrotic lesions,gastric mucosa [2],deep necrotic lesions did not occur
same,Mucosa by scanning electromicroscopy,gastric mucosa [2],nearly normal mucosa
same,Hemorrhagic area*(%),"gastric mucosa [7]; 1 ml 30 mM AA in 5 mM PL by gavage 1 hour before 2 ml ethanol, stomach evaluated 3 hours after ethanol",15.4%
same,Hemorrhagic area*(%),"gastric mucosa [7]; 1 ml 60 mM AA in 5 mM PL by gavage 1 hour before 2 ml ethanol, evaluated 3 hours after ethanol",3.0%
same,Hemorrhagic area*(%),"gastric mucosa [7]; 1 ml 120 mM AA in 5 mM PL by gavage 1 hour before 2 ml ethanol, evaluated 3 hours after ethanol",0.6%
same,Hemorrhagic area*(%),"gastric mucosa [7]; Group E: 1 ml 120 mM AA in 5 mM PL by gavage 30 minutes before 2 ml ethanol, evaluated 3 hours after ethanol",0.8%
same,values of PGE2 in the gastric content higher than in animals that received PL only,"PGE2; 30 and 60 minutes after intragastric instillation, relative to PL group","5,000-13,000"
same,PGE2 concentration (ng/ml),PGE2; gastric contents 30 min after intragastric instillation of 1 ml 120 mM AA,7360.0* ng/ml
same,PGE2 concentration (ng/ml),PGE2; gastric contents 60 min after intragastric instillation of 1 ml 120 mM AA,4100.0* ng/ml
same,Histological changes of gastric mucosa after the acid alone,"gastric mucosa [8]; 60 minutes after intragastric 1 ml 120 mM arachidonic acid, no ethanol",did not change the appearance of the gastric mucosa
same,Edema of submucosa accumulation of polymorphonuclears,gastric mucosa [8]; [10],Present
same,Hemorrhagic erosions,gastric mucosa [8]; [10],Absent
same,The surface epithelium layer,gastric mucosa [8]; [10],"Present, continuous (minor focal defects seen occasionally)"
